Test results published in PMC7145303, “In Vitro Activities of MMV Malaria Box Compounds against the Apicomplexan Parasite Neospora caninum, the Causative Agent of Neosporosis in Animals” (Molecules, 2020).
Read-outs that look alike come from different tables or passages of the source.

Tests used:
[1] = system: Plasmodium falciparum blood forms; set-up: method as in PMID 31665424; conditions: cited from earlier work
[2] = source of values not stated; cited from earlier work
[3] = set-up: AUC0-inf / AUC0-last: unit not given here; conditions: mice, p.o., data provided by MMV, cited from earlier work; for MRT0-last / Tlast / Tmax / Cmax / AUC0-last: 114 µmol/kg (1),(5), 119 µmol/kg (2); for Cmax: plasma
N. caninum tachyzoites [4] = assay: N. caninum β-galactosidase reporter strain proliferation in HFF (screen and inhibition curves); assay type: cell-based; conditions: Neospora caninum
Description: Figure 2 Dose response curves of 9 Medicines for Malaria Venture (MMV) Malaria Box compounds. […] The inhibition of N. caninum tachyzoite proliferation was determined using a β-galactosidase reporter strain in the presence of a concentration series of compounds added prior to the infection of confluent human foreskin fibroblasts by tachyzoites. The mean values ± SE are indicated for quadruplicates.
For an initial screen, 390 compounds (1 µM compound/well) were added to human foreskin fibroblasts (HFFs) previously seeded in 96-well-plates. DMSO (0.25%) was included as a solvent control. HFF monolayers were either left uninfected or were infected with 10^3 N. caninum beta-galactosidase expressing tachyzoites per well. After 3 days, N. caninum proliferation was assayed by measuring beta-galactosidase activity, and HFF viability was monitored using the Alamar Blue assay. This screen was repeated once for confirmation, yielding identical results. Forty compounds showing values lower than the cut-off of the beta-galactosidase assay were regarded as effective against N. caninum, compounds yielding values lower than the cutoff of the Alamar Blue assay were regarded as cytotoxic. Effective compounds without cytotoxicity were regarded as potential hits and were retained for further experiments. The IC50 values (inhibitory concentration of 50% of the solvent control value) of selected compounds were determined in quadruplicate wells in the same assay set-up and were calculated as described.
(§1) To define the cutoff values in the initial screening, compounds were regarded as effective against N. caninum when the beta-galactosidase values were lower than the mean values of the controls (8 replicates) minus three times the standard deviation of these control values. Furthermore, compounds were regarded as cytotoxic when the Alamar Blue values were lower than the mean values of the untreated controls (8 replicates) minus three times the standard deviation of these control values. The IC50 values were calculated after the logit-log transformation of the relative growth (RG; control = 1) according to the formula ln (RG/(1 − RG)) = a × ln(drug concentration) + b, and the subsequent regression analysis was carried out using the corresponding software tool contained in the Excel software package (Microsoft, Seattle, WA, USA).

N. caninum tachyzoites [5] = assay type: cell-based, Neospora caninum; conditions: 500 nM, TEM at 6, 12, 24, 48 h of treatment
Description: The transmission electron microscopy of N. caninum-infected HFF monolayers was done as previously described. Briefly, HFFs were grown to confluency in 6-well tissue culture devices and were infected with freshly isolated N. caninum tachyzoites during 2 h at 37 °C/5% CO2. After one wash in PBS, treatments with the compounds (1), (2), and (5) were initiated, all at 500 nM. The controls were treated with the corresponding amount of DMSO. After 6, 12, 24, or 48 h, samples were rinsed in PBS, and were fixed in 100 mM of cacodylate buffer pH7.3 containing 2.5% glutaraldehyde for 2 h at room temperature. The cells were scraped and centrifuged at 1000 g for 10 min at 4 °C and, and the resulting pellet was further fixed in the same solution at 4 °C overnight, followed by post-fixation in 2% OsO4 in cacodylate buffer for 4 h at 4 °C. Subsequently, the specimens were washed and pre-stained in Uranyless^TM (Electron Microscopy Sciences, Hatfield, PA, USA), followed by dehydration in a graded series of ethanol (30%, 50%, 70%, 90%, and 100%). They were finally embedded in Epon 820 epoxy resin over a period of 2 days with 3 resin changes. The resin was polymerized at 65 °C for 24 h, and 80-nm sections were cut on a Reichert and Jung ultramicrotome. The sections were loaded onto 300-mesh copper grids (Plano GmbH, Marburg, Germany) and were stained with Uranyless^TM and lead citrate as described.

cysteine proteinases = system: cysteine proteinases; set-up: method as in PMID 27467575; conditions: functional assays; cited from earlier work
Cryptosporidium parvum = system: Cryptosporidium parvum; set-up: method as in PMID 24566188; conditions: cited from earlier work
[6] = system: human foreskin fibroblasts (HFFs); assay: HFF viability, Alamar Blue assay; assay type: cell-based; conditions: 1 µM compound/well, uninfected confluent HFF, 3 days
Description: For an initial screen, 390 compounds (1 µM compound/well) were added to human foreskin fibroblasts (HFFs) previously seeded in 96-well-plates. DMSO (0.25%) was included as a solvent control. HFF monolayers were either left uninfected or were infected with 10^3 N. caninum beta-galactosidase expressing tachyzoites per well. After 3 days, N. caninum proliferation was assayed by measuring beta-galactosidase activity, and HFF viability was monitored using the Alamar Blue assay. This screen was repeated once for confirmation, yielding identical results. […]
as §1, with “Furthermore, compounds were regarded as cytotoxic when the Alamar Blue values were lower than the mean values of the untreated controls (8 replicates) minus three times the standard deviation of these control values.” left out

Theileria annulata = conditions: cited from earlier work; for Therapeutic index: T. annulata vs macrophages
Brugia malayi = system: Brugia malayi; set-up: method as in PMID 27467575; conditions: cited from earlier work
[7] = 72 h, 3 days, concentration range 0–250 nM, with 95% confidence intervals

O=C(Nc1cccc(C(F)(F)F)c1)c1cc(Cl)ccc1O [Compound (2)]
Rapidity of action against P. falciparum blood forms [1]: very rapidly | LogP [2]: 6.06 | MRT0-last [3]: 5.24 h | Tlast [3]: 9.00 h | Tmax [3]: 6.33 h | Cmax [3]: 62 nM | IC50 (N. caninum tachyzoites [4]; [7]): 71 ± 30 nM | Effects on the ultrastructure of N. caninum tachyzoites (N. caninum tachyzoites [5]): after a treatment duration of 12 h (Figure 6C), the loss of the tachyzoite mitochondrial matrix was evident | Effects on the ultrastructure of N. caninum tachyzoites (N. caninum tachyzoites [5]; listed as MMV665807): specifically induced distinct alterations in the tachyzoites

CCCOCc1cc(CN2CCN(c3cccc(Cl)c3)CC2)c(O)c2ncccc12 [Compound (3)]
Rapidity of action against P. falciparum blood forms [1]: very slowly | LogP [2]: 4.71 | Inhibition of cysteine proteinases (cysteine proteinases): inhibits cysteine proteinases | IC50 (N. caninum tachyzoites [4]; [7]): 99 ± 10 nM

O=C1c2ccc3c4c(ccc(c24)C(=O)N1CCCCO)C(=O)N(CCCCO)C3=O [Compound (5)]
Effectiveness against C. parvum (Cryptosporidium parvum): effective against C. parvum with an IC50 in same range | LogP [2]: −1.30 | AUC0-last [3]: 0.475 | MRT0-last [3]: 1.55 h | Tlast [3]: 7.00 h | Tmax [3]: 0.444 h | Cmax [3]: 308 nM | AUC0-inf ([3]; 114 µmol/kg): 0.486 | MRT0-inf ([3]; 114 µmol/kg): 1.80 h | T1/2 ([3]; 114 µmol/kg): 1.48 h | IC50 (N. caninum tachyzoites [4]): < 200 nM | IC50 (N. caninum tachyzoites [4]; [7]): 150 ± 30 nM | Effects on the ultrastructure of N. caninum tachyzoites (N. caninum tachyzoites [5]): ongoing proliferation despite clear ultrastructural alterations | Effects on the ultrastructure of N. caninum tachyzoites (N. caninum tachyzoites [5]; listed as MMV009085): specifically induced distinct alterations in the tachyzoites

CN(C)c1ccc(C(O)(c2ccc(N(C)C)cc2)c2ccc(N(C)C)cc2)cc1 [Compound (1)]
Rapidity of action against P. falciparum blood forms [1]: more slowly than artesunate, but faster than atovaquone | IC50 (Cryptosporidium parvum; read-out: IC50 against Cryptosporidium parvum): ~800 nM | LogP [2]: 4.76 | Cytotoxicity against HFFs [6]: did not affect confluent HFFs | AUC0-last [3]: 27.2 | MRT0-last [3]: 4.80 h | Tlast [3]: 9.00 h | Tmax [3]: 5.00 h | Cmax [3]: 1090 nM | Therapeutic index (Theileria annulata): 2.5 | Effectiveness against T. annulata (Theileria annulata): most effective against T. annulata | IC50 (N. caninum tachyzoites [4]; [7]): 25 ± 5 nM | Effects on the ultrastructure of N. caninum tachyzoites (N. caninum tachyzoites [5]): cytoplasmic vacuoles that were already detectable after 6 h of treatment | Effects on the ultrastructure of N. caninum tachyzoites (N. caninum tachyzoites [5]; listed as MMV665941): specifically induced distinct alterations in the tachyzoites

COc1ccc(C(=O)NC(c2ccc(Cl)cc2Cl)c2cc(Cl)c3cccnc3c2O)cc1 (stereo not drawn) [Compound (4)]
Rapidity of action against P. falciparum blood forms [1]: relatively slowly | Effectiveness against C. parvum (Cryptosporidium parvum): effective against C. parvum | LogP [2]: 6.15 | Therapeutic index (Theileria annulata): around 18 | Effectiveness against T. annulata (Theileria annulata): most effective against T. annulata | Effectiveness against the helminth Brugia malayi (Brugia malayi): effective | IC50 (N. caninum tachyzoites [4]; [7]): 79 ± 10 nM
